In patent US9708314B2, “Heterocyclic amide compound” (NISSAN CHEMICAL INDUSTRIES, LTD., priority 2013, dated 2017):

Experiments:
Assay type in all cases: in vivo
[1] = system: transplanted Oryza sativa; assay: Test Example 1: effect on crop, application before weed generation in submerged conditions; conditions: Application herbicide amount 320 g/ha; Seventeenth Table
Procedure, shortened: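 Pre-emergence water-surface application under 4 cm flooding, same day as sowing, with rice transplanted at 2.5 leaf stage. Dose given as g/ha. Plants grown at 25° C. to 30° C. and rated three weeks later on a 0 (≤5%) to 5 (≥90%) herbicidal-ratio scale.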

[2] = system: Abutilon theophrasti; assay: Test Example 4: herbicidal effect by application to foliage (diluvial soil, plastic box); conditions: for M (Abutilon theophrasti) herbicidal effect grade: Application herbicide amount 320 g/ha, foliage application
Procedure, shortened: (§1)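 Seeds sown in sterilized diluvial soil, covered ~1.5 cm, grown 14 days in greenhouse at 25° C. to 30° C. Emulsion formulation diluted in water to set rate (g/ha) and sprayed onto stems and leaves. Effect scored visually 3 weeks later on 0–5 scale (5 = ≥90% herbicidal ratio, 0 = ≤5%).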

[3] = system: Alopecurus myosuroides; assay: as above; conditions: for J (Alopecurus myosuroides) herbicidal effect grade: Application herbicide amount 320 g/ha, foliage application
Procedure, shortened: as §1

[4] = system: Amaranthus retroflexus; assay: as above; conditions: for N (Amaranthus retroflexus) herbicidal effect grade: Application herbicide amount 320 g/ha, foliage application
Procedure, shortened: as §1

[5] = system: Apera spica-venti.; assay: as above; conditions: for L (Apera spica-venti.) herbicidal effect grade: Application herbicide amount 320 g/ha, foliage application
Procedure, shortened: as §1

[6] = system: Avena fatua; assay: as above; conditions: for I (Avena fatua) herbicidal effect grade: Application herbicide amount 320 g/ha, foliage application
Procedure, shortened: as §1

[7] = system: Chenopodium album; assay: as above; conditions: for O (Chenopodium album) herbicidal effect grade: Application herbicide amount 320 g/ha, foliage application
Procedure, shortened: as §1

[8] = system: Digitaria ciliaris; assay: as above; conditions: for F (Digitaria ciliaris) herbicidal effect grade: Application herbicide amount 320 g/ha, foliage application
Procedure, shortened: as §1

[9] = system: Echinochloa crus-galli var. crus-galli; assay: as above; conditions: for H (Echinochloa crus-galli var. crus-galli) herbicidal effect grade: Application herbicide amount 320 g/ha, foliage application
Procedure, shortened: as §1

[10] = system: Galium spurium; assay: as above; conditions: Application herbicide amount 320 g/ha; foliage application
Procedure, shortened: as §1

[11] = system: Lolium multiflorum Lam.; assay: as above; conditions: for K (Lolium multiflorum Lam.) herbicidal effect grade: Application herbicide amount 320 g/ha, foliage application
Procedure, shortened: as §1

[12] = system: Setaria viridis; assay: as above; conditions: for G (Setaria viridis) herbicidal effect grade: Application herbicide amount 320 g/ha, foliage application
Procedure, shortened: as §1

[13] = system: Stellaria media; assay: as above; conditions: for P (Stellaria media) herbicidal effect grade: Application herbicide amount 320 g/ha, foliage application
Procedure, shortened: as §1

[14] = system: Veronica persica; assay: as above; conditions: for R (Veronica persica) herbicidal effect grade: Application herbicide amount 320 g/ha, foliage application
Procedure, shortened: as §1

[15] = system: Beta vulgaris ssp. vulgaris; assay: Test Example 4: effect on crop by application to foliage (diluvial soil, plastic box); conditions: for f (Beta vulgaris ssp. vulgaris) effect on crop grade: Application herbicide amount 320 g/ha, foliage application
Procedure, shortened: as §1

[16] = system: Brassica campestris L.; assay: as above; conditions: for g (Brassica campestris L.) effect on crop grade: Application herbicide amount 320 g/ha, foliage application
Procedure, shortened: as §1

[17] = system: Glycine max; assay: as above; conditions: for d (Glycine max) effect on crop grade: Application herbicide amount 320 g/ha, foliage application
Procedure, shortened: as §1

[18] = system: Triticum aestivum; assay: as above; conditions: for e (Triticum aestivum) effect on crop grade: Application herbicide amount 320 g/ha, foliage application
Procedure, shortened: as §1

[19] = system: Zea mays; assay: as above; conditions: for c (Zea mays) effect on crop grade: Application herbicide amount 320 g/ha, foliage application
Procedure, shortened: as §1

[20] = system: directly sowed Oryza sativa; assay: as above; conditions: for b (directly sowed Oryza sativa) effect on crop grade: Application herbicide amount 320 g/ha, foliage application
Procedure, shortened: as §1

[21] = application to foliage, application herbicide amount 320 g/ha

Cc1nnc(NC(=O)c2ccc(C(F)(F)F)n3c(C4(C)CC4(Cl)Cl)nnc23)o1 (stereo not shown) [1-105]
a: transplanted Oryza sativa (effect on crop grade) [1]: 0 (Herbicidal ratio of 5% or less (almost no effect))
M (Abutilon theophrasti) herbicidal effect grade [2]: 3 (Herbicidal ratio of 40% or more and less than 70%)
J (Alopecurus myosuroides) herbicidal effect grade [3]: 1 (Herbicidal ratio of 5% or more and less than 20%)
N (Amaranthus retroflexus) herbicidal effect grade [4]: 3 (Herbicidal ratio of 40% or more and less than 70%)
L (Apera spica-venti.) herbicidal effect grade [5]: 1 (Herbicidal ratio of 5% or more and less than 20%)
I (Avena fatua) herbicidal effect grade [6]: 1 (Herbicidal ratio of 5% or more and less than 20%)
O (Chenopodium album) herbicidal effect grade [7]: 5 (Herbicidal ratio of 90% or more (almost completely withered))
F (Digitaria ciliaris) herbicidal effect grade [8]: 4 (Herbicidal ratio of 70% or more and less than 90%)
H (Echinochloa crus-galli var. crus-galli) herbicidal effect grade [9]: 4 (Herbicidal ratio of 70% or more and less than 90%)
Q (Galium spurium) herbicidal effect grade [10]: 1 (Herbicidal ratio of 5% or more and less than 20%)
K (Lolium multiflorum Lam.) herbicidal effect grade [11]: 1 (Herbicidal ratio of 5% or more and less than 20%)
G (Setaria viridis) herbicidal effect grade [12]: 1 (Herbicidal ratio of 5% or more and less than 20%)
P (Stellaria media) herbicidal effect grade [13]: 4 (Herbicidal ratio of 70% or more and less than 90%)
R (Veronica persica) herbicidal effect grade [14]: 3 (Herbicidal ratio of 40% or more and less than 70%)
f (Beta vulgaris ssp. vulgaris) effect on crop grade [15]: 4 (Herbicidal ratio of 70% or more and less than 90%)
g (Brassica campestris L.) effect on crop grade [16]: 3 (Herbicidal ratio of 40% or more and less than 70%)
d (Glycine max) effect on crop grade [17]: 2 (Herbicidal ratio of 20% or more and less than 40%)
e (Triticum aestivum) effect on crop grade [18]: 1 (Herbicidal ratio of 5% or more and less than 20%)
c (Zea mays) effect on crop grade [19]: 1 (Herbicidal ratio of 5% or more and less than 20%)
b (directly sowed Oryza sativa) effect on crop grade [20]: 0 (Herbicidal ratio of 5% or less (almost no effect))

CCSc1nnc2c(C(=O)Nc3nnco3)ccc(C(F)(F)F)n12 [1-106]
a: transplanted Oryza sativa (effect on crop grade) [1]: 1 (Herbicidal ratio of 5% or more and less than 20%)
M (Abutilon theophrasti) herbicidal effect grade [2]: 4 (Herbicidal ratio of 70% or more and less than 90%)
J (Alopecurus myosuroides) herbicidal effect grade [3]: 1 (Herbicidal ratio of 5% or more and less than 20%)
N (Amaranthus retroflexus) herbicidal effect grade [4]: 5 (Herbicidal ratio of 90% or more (almost completely withered))
L (Apera spica-venti.) herbicidal effect grade [5]: 3 (Herbicidal ratio of 40% or more and less than 70%)
I (Avena fatua) herbicidal effect grade [6]: 4 (Herbicidal ratio of 70% or more and less than 90%)
O (Chenopodium album) herbicidal effect grade [7]: 5 (Herbicidal ratio of 90% or more (almost completely withered))
F (Digitaria ciliaris) herbicidal effect grade [8]: 5 (Herbicidal ratio of 90% or more (almost completely withered))
H (Echinochloa crus-galli var. crus-galli) herbicidal effect grade [9]: 5 (Herbicidal ratio of 90% or more (almost completely withered))
Q (Galium spurium) herbicidal effect grade [10]: 4 (Herbicidal ratio of 70% or more and less than 90%)
K (Lolium multiflorum Lam.) herbicidal effect grade [11]: 3 (Herbicidal ratio of 40% or more and less than 70%)
G (Setaria viridis) herbicidal effect grade [12]: 5 (Herbicidal ratio of 90% or more (almost completely withered))
P (Stellaria media) herbicidal effect grade [13]: 5 (Herbicidal ratio of 90% or more (almost completely withered))
R (Veronica persica) herbicidal effect grade [14]: 5 (Herbicidal ratio of 90% or more (almost completely withered))
f (Beta vulgaris ssp. vulgaris) effect on crop grade [15]: 5 (Herbicidal ratio of 90% or more (almost completely withered))
g (Brassica campestris L.) effect on crop grade [16]: 4 (Herbicidal ratio of 70% or more and less than 90%)
d (Glycine max) effect on crop grade [17]: 3 (Herbicidal ratio of 40% or more and less than 70%)
e (Triticum aestivum) effect on crop grade [18]: 3 (Herbicidal ratio of 40% or more and less than 70%)
c (Zea mays) effect on crop grade [19]: 1 (Herbicidal ratio of 5% or more and less than 20%)
b (directly sowed Oryza sativa) effect on crop grade [20]: 3 (Herbicidal ratio of 40% or more and less than 70%)

COCCOCc1nnc2c(C(=O)Nc3nnco3)ccc(C(F)(F)F)n12 [1-107]
a: transplanted Oryza sativa (effect on crop grade) [1]: 2 (Herbicidal ratio of 20% or more and less than 40%)
M (Abutilon theophrasti) herbicidal effect grade [2]: 4 (Herbicidal ratio of 70% or more and less than 90%)
J (Alopecurus myosuroides) herbicidal effect grade [3]: 3 (Herbicidal ratio of 40% or more and less than 70%)
N (Amaranthus retroflexus) herbicidal effect grade [4]: 5 (Herbicidal ratio of 90% or more (almost completely withered))
L (Apera spica-venti.) herbicidal effect grade [5]: 3 (Herbicidal ratio of 40% or more and less than 70%)
I (Avena fatua) herbicidal effect grade [6]: 4 (Herbicidal ratio of 70% or more and less than 90%)
O (Chenopodium album) herbicidal effect grade [7]: 5 (Herbicidal ratio of 90% or more (almost completely withered))
F (Digitaria ciliaris) herbicidal effect grade [8]: 5 (Herbicidal ratio of 90% or more (almost completely withered))
H (Echinochloa crus-galli var. crus-galli) herbicidal effect grade [9]: 5 (Herbicidal ratio of 90% or more (almost completely withered))
Q (Galium spurium) herbicidal effect grade [10]: 4 (Herbicidal ratio of 70% or more and less than 90%)
K (Lolium multiflorum Lam.) herbicidal effect grade [11]: 3 (Herbicidal ratio of 40% or more and less than 70%)
G (Setaria viridis) herbicidal effect grade [12]: 5 (Herbicidal ratio of 90% or more (almost completely withered))
P (Stellaria media) herbicidal effect grade [13]: 5 (Herbicidal ratio of 90% or more (almost completely withered))
R (Veronica persica) herbicidal effect grade [14]: 5 (Herbicidal ratio of 90% or more (almost completely withered))
f (Beta vulgaris ssp. vulgaris) effect on crop grade [15]: 5 (Herbicidal ratio of 90% or more (almost completely withered))
g (Brassica campestris L.) effect on crop grade [16]: 5 (Herbicidal ratio of 90% or more (almost completely withered))
d (Glycine max) effect on crop grade [17]: 5 (Herbicidal ratio of 90% or more (almost completely withered))
e (Triticum aestivum) effect on crop grade [18]: 3 (Herbicidal ratio of 40% or more and less than 70%)
c (Zea mays) effect on crop grade [19]: 1 (Herbicidal ratio of 5% or more and less than 20%)
b (directly sowed Oryza sativa) effect on crop grade [20]: 4 (Herbicidal ratio of 70% or more and less than 90%)

CC(C)c1nnc2c(C(=O)N(C)c3nnnn3C)ccc(C(F)(F)F)n12 [2-023]
a: transplanted Oryza sativa (effect on crop grade) [1]: 3 (Herbicidal ratio of 40% or more and less than 70%)
M: herbicidal effect on Abutilon theophrasti [2, 21]: 3 (Herbicidal ratio of 40% or more and less than 70%)
J: herbicidal effect on Alopecurus myosuroides [3, 21]: 0 (Herbicidal ratio of 5% or less (almost no effect))
N: herbicidal effect on Amaranthus retroflexus [4, 21]: 5 (Herbicidal ratio of 90% or more (almost completely withered))
L: herbicidal effect on Apera spica-venti. [5, 21]: 0 (Herbicidal ratio of 5% or less (almost no effect))
I: herbicidal effect on Avena fatua [6, 21]: 0 (Herbicidal ratio of 5% or less (almost no effect))
O: herbicidal effect on Chenopodium album [7, 21]: 4 (Herbicidal ratio of 70% or more and less than 90%)
F: herbicidal effect on Digitaria ciliaris [8, 21]: 1 (Herbicidal ratio of 5% or more and less than 20%)
H: herbicidal effect on Echinochloa crus-galli var. crus-galli [9, 21]: 4 (Herbicidal ratio of 70% or more and less than 90%)
K: herbicidal effect on Lolium multiflorum Lam. [11, 21]: 0 (Herbicidal ratio of 5% or less (almost no effect))
G: herbicidal effect on Setaria viridis [12, 21]: 1 (Herbicidal ratio of 5% or more and less than 20%)
P: herbicidal effect on Stellaria media [13, 21]: 3 (Herbicidal ratio of 40% or more and less than 70%)
R: herbicidal effect on Veronica persica [14, 21]: 4 (Herbicidal ratio of 70% or more and less than 90%)
f: effect on crop, Beta vulgaris ssp. vulgaris [15, 21]: 4 (Herbicidal ratio of 70% or more and less than 90%)
g: effect on crop, Brassica campestris L. [16, 21]: 1 (Herbicidal ratio of 5% or more and less than 20%)
d: effect on crop, Glycine max [17, 21]: 1 (Herbicidal ratio of 5% or more and less than 20%)
e: effect on crop, Triticum aestivum [18, 21]: 0 (Herbicidal ratio of 5% or less (almost no effect))
c: effect on crop, Zea mays [19, 21]: 0 (Herbicidal ratio of 5% or less (almost no effect))
b: effect on crop, directly sowed Oryza sativa [20, 21]: 0 (Herbicidal ratio of 5% or less (almost no effect))
